Patent publication US11739063B2, “DREADD actuators” (The United States of America, as represented by the …, priority 2018, dated 2023)
Entries after “also recorded” stand apart in the source; their conditions may differ. Where two headings read alike, the source gives them in different places.

Columns and labels:
[1] = biological target: T1, hM4Di (Gi1) (Homo sapiens, UniProt P08173, A203G/Y113C); assay: BRET assay of Gi1 activation in HEK-293 cells with hM4Di; type: cell-based; settings: for EC50: BRET change 5 minutes after addition; for Gi1 activation (BRET ratio): cells with hM4Di versus cells without DREADDs
T1 construct: host or cells: HEK-293
T1 sequence (P08173 1-479 Y113C/A203G): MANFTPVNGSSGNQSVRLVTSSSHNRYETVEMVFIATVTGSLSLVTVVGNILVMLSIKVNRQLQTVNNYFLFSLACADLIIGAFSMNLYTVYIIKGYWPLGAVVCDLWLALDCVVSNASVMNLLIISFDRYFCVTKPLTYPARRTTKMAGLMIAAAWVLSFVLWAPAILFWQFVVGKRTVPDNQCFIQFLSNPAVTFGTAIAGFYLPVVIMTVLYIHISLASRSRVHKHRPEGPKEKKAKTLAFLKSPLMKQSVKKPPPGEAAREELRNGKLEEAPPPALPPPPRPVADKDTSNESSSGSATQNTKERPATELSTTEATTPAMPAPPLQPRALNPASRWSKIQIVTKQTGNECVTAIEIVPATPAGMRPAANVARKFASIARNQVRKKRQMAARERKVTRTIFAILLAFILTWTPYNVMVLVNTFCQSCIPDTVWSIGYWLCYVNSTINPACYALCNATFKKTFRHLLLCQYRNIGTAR
Description: (§1) Bioluminescence resonance energy transfer (“BRET”) assays were performed to detect receptor ligand-induced Gi/o protein activation. […] Forty-eight hours after transfection cells were harvested, washed and resuspended in phosphate-buffered saline (“PBS”). Approximately 200,000 cells/well were distributed in 96-well plates, and 5 μM Coelenterazine H (substrate for luciferase) was added to each well.
(§2) Results were calculated for the BRET change (BRET ratio for the corresponding compound minus BRET ratio in the absence of the compound) 5 minutes after the addition of the compounds.

[2] = biological target: T2, hM4Di (Go1) (Homo sapiens, UniProt P08173, A203G/Y113C); assay: BRET assay of Go1 activation in HEK-293 cells with hM4Di; type: cell-based; settings: for EC50: BRET change 5 minutes after addition; for Go1 activation (BRET ratio): cells with hM4Di versus cells without DREADDs
T2 construct: host or cells: HEK-293
T2 sequence (P08173 1-479 Y113C/A203G): T1 sequence (P08173 1-479 Y113C/A203G)
Description: as §1, §2

[3] = biological target: T3, hM3Dq (Homo sapiens, UniProt P20309, A239G/Y149C); assay: Calcium accumulation assay (GCaMP6f) in HEK293 cells with hM3Dq; settings: for hM3Dq activation (fluorescence, calcium accumulation): cells with hM3Dq versus cells without DREADDs
T3 sequence (P20309 whole entry Y149C/A239G): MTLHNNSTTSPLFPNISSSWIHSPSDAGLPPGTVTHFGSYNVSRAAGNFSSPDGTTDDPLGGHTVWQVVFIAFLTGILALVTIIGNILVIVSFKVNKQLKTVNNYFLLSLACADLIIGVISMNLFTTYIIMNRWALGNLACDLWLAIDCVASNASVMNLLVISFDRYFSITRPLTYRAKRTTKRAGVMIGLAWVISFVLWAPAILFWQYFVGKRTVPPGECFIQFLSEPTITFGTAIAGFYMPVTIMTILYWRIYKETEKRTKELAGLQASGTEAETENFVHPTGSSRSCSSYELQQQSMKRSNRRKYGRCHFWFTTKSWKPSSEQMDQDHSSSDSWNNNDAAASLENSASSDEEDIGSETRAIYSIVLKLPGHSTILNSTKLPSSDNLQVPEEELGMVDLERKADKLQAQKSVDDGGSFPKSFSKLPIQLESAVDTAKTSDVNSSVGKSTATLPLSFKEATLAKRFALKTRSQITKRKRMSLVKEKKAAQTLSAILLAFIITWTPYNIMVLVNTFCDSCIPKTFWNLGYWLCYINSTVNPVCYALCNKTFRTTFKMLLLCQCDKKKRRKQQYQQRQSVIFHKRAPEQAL
Description: The changes in fluorescence were read every 18 seconds for 5 minutes.

[4] = test system: D1-hM3Dq, D1-hM4Di or WT mice; assay: FDG-PET brain metabolic mapping (DREAMM); type: in vivo
Description: The study was set up as follows. Mice (D1-hM3Dq, D1-hM4Di or WT littermates) were habituated to experimenter handling and fasted 16 hours before the experiment. On the day of the experiment, mice received an IP injection of vehicle (1 ml/kg) and were placed back into their home cages. Ten minutes later, mice were injected (IP) with 11 MBq of 2-deoxy-2-[^18F]fluoro-D-glucose (FDG, Cardinal Health, Westmont, Ill.) and placed back into their home cages. After 30 minutes, mice were anesthetized with 1.5% isoflurane, placed on a custom-made bed of a NANOSCAN small animal PET/CT scanner (Mediso Medical Imaging Systems) and scanned for 20 min on a static acquisition protocol, followed by a CT scan. […] In all cases, the PET data were reconstructed and co-registered to an MRI template as described above. Voxel-based repeated measures with Student's t-test comparing baseline to drug were performed, and the resulting parametric images were filtered for statistically significant (p<0.05) clusters larger than 100 contiguous voxels. All statistical parametric mapping analyses were performed using MATLAB R2016 (Mathworks, Chicago, Ill.) and SPM12 (University College London).

[5] = biological target: T3, hM3Dq; assay: Radioligand binding assay, [3H]clozapine competition, hM3Dq membranes; design: host or cells: HEK-293; settings: for Ki: HEK-293 membranes, 2.5 nM [3H]clozapine, Cheng-Prusoff; for Binding to the tested DREADDs (in words): hM3Dq and hM4Di
Description: (§3) HEK-293 cells were transfected with 5 μg/dish of pAAV plasmids encoding for hM3Dq (available from Addgene, Cambridge, Mass., plasmid #89149), hM4Di (available from Addgene, Cambridge, Mass., plasmid #89150) or a control vector and harvested 48 hours after transfection. […] The protein was quantified by the bicinchoninic acid method. […] Microscint-20 scintillation liquid ([…]) was added to the filter plates, plates were incubated overnight at room temperature and radioactivity counts were determined in a MICROBETA^2™ (PerkinElmer, Waltham, Mass.) plate counter with an efficiency of 41%. Competition curves were fitted to a one binding site model and Ki values were calculated using the Cheng-Prusoff equation.

[6] = biological target: T4, hM4Di (Homo sapiens, UniProt P08173, A203G/Y113C); assay: Radioligand binding assay, [3H]clozapine competition, hM4Di membranes; design: host or cells: HEK-293; settings: HEK-293 membranes, 2.5 nM [3H]clozapine, Cheng-Prusoff
T4 sequence (P08173 1-479 Y113C/A203G): T1 sequence (P08173 1-479 Y113C/A203G)
Description: as §3

[7] = test system: mice with D1-hM3Dq receptors; assay: Locomotor activity assay (open-field test); type: in vivo; settings: 0.01, 0.1, 1 mg/kg intraperitoneal; compared with clozapine
Description: Transgenic male and female mice (25-30 g, offspring of D1-Cre (heterozygous)×R26-hM3Dq/mCitrine (heterozygous) crossing) either heterozygous for both loci (CRE+, het het) or wild type for D1-Cre (CRE−, wt het) were tested for locomotor activity. The mice were injected (intraperitoneal) with the indicated dose of clozapine, compound I(g), or vehicle (buffered saline).

[8] = test system: DREADDs (hM3Dq, hM4Di) and endogenous clozapine-binding sites; assay: Autoradiography, [3H]clozapine displacement in brain sections of wild-type and transgenic DREADD mice; settings: about 3.5 nM [3H]clozapine, WT
Description: Flash frozen brain tissue was sectioned (20 μm) on a cryostat and thaw mounted onto ethanol-washed glass slides. […] Following incubation, the slides were washed with an incubation buffer for 5 mins (2×) followed by a 30 second dip in ice-cold deionized H2O. The slides were then air-dried, placed in a […]™ (GE Healthcare, UK) autoradiography cassette, covered with a BAS-TR2025 Storage Phosphor Screen (GE Healthcare, UK), exposed for 3-5 days, and imaged using a phosphorimager.

[9] = biological target: T4, hM4Di; assay: hM4Di-driven inhibition of light-evoked neuronal activation; type: in vivo; settings: 0.1 mg/kg

EC50 [1] | EC50 [2] | EC50 [3] | Ki [5] | Ki [6] | Compound | further results
0.067 nM | 0.063 nM | 1.43 nM | – | – | [2H]C([2H])(C)N1CCN(C2=Nc3cc(Cl)ccc3Nc3ccccc32)CC1 [Compound 13, reference compound] | –
2.7 nM | 1.7 nM | 1.66 nM | – | – | c1ccc2c(c1)N=C(N1CCNCC1)c1ccccc1N2 [Compound 21, reference compound] | Brain metabolic activity (FDG-PET) ([4]; WT mice, 1 mg/kg): significant changes in brain metabolic activity; also recorded: decreased metabolic activity of multiple networks
– | – | – | 10.5 nM | 23.5 nM | CCN1CCN(C2=Nc3cc(Cl)ccc3Nc3ccc(F)cc32)CC1 [Compound I(a), 8-chloro-11-(4-ethylpiperazin-1-yl)-2-fluoro-5H-dibenzo[b,e][1,4]diazepine] | Recruitment of whole-brain functional networks (FDG-PET) ([4]; D1-hM3Dq and D1-hM4Di mice, 0.1 mg/kg, n=4 per condition): opposing and differential recruitment of whole-brain functional networks

The remaining lines, values behind:

Compound | EC50 [1] | EC50 [2] | EC50 [3] | Ki [5] | Ki [6] | further results
C[N+]1([O-])CCN(C2=Nc3cc(Cl)ccc3Nc3ccccc32)CC1 [CNO, clozapine n-oxide, reference compound] | 13 nM | 3.1 nM | – | – | – | EC50 ([3]; read-out: EC50 value for hM3Dq, mean, calcium accumulation, fluorescence): 11.3 nM
CCN1CCN(C2=Nc3ccccc3Nc3ccc(F)cc32)CC1 [Compound I(b), 11-(4-Ethylpiperazin-1-yl)-2-fluoro-5H-dibenzo[b,e][1,4]diazepine] | – | – | – | 33.5 nM | 118 nM | –
CCN1CCN(C2=Nc3cc(Cl)ccc3Nc3cc(F)ccc32)CC1 [Compound I(c), 8-Chloro-11-(4-ethylpiperazin-1-yl)-3-fluoro-5H-dibenzo[b,e][1,4]diazepine] | – | – | – | 51.4 nM | 51.3 nM | –
CCN1CCN(C2=Nc3ccccc3Nc3cc(F)ccc32)CC1 [Compound I(d), 11-(4-Ethylpiperazin-1-yl)-3-fluoro-5H-dibenzo[b,e][1,4]diazepine] | – | – | – | 101 nM | 149 nM | –
CCN1CCN(C2=Nc3ccccc3Nc3cccc(F)c32)CC1 [Compound I(e), 11-(4-Ethylpiperazin-1-yl)-1-fluoro-5H-dibenzo[b,e][1,4]diazepine] | – | – | – | 4.8 nM | 14.2 nM | –
CCN1CCN(C2=Nc3cc(F)ccc3Nc3ccccc32)CC1 [Compound I(f), 11-(4-Ethylpiperazin-1-yl)-8-fluoro-5H-dibenzo[b,e][1,4]diazepine] | – | – | – | 23.7 nM | 12.9 nM | –
CCN1CCN(C2=Nc3cc(Cl)ccc3Nc3cccc(F)c32)CC1 [Compound I(g), 8-Chloro-11-(4-ethylpiperazin-1-yl)-1-fluoro-5H-dibenzo[b,e][1,4]diazepine] | 0.24 nM | 0.8 nM | 5.15 nM | 1.7 nM | 8.7 nM | Gi1 activation (BRET ratio) [1]: activate Gi1; Go1 activation (BRET ratio) [2]: activate Go1; Reduction of locomotor activity (distance traveled) [7]: more effective than clozapine at reducing locomotor activity; Binding to the tested DREADDs (in words) [5]: especially effective at binding the tested DREADDs; hM3Dq activation (fluorescence, calcium accumulation) [3]: effective at activating hM3Dq
CCN1CCN(C2=Nc3cc(Cl)ccc3Nc3c(F)cccc32)CC1 [Compound I(h), 8-Chloro-11-(4-ethylpiperazin-1-yl)-4-fluoro-5H-dibenzo[b,e][1,4]diazepine] | 0.073 nM | 0.14 nM | 2.64 nM | 1.9 nM | 3.6 nM | Displacement of [3H]clozapine binding ([8]; at 10 nM): selectively displaced [^3H]clozapine binding to DREADDs but not to endogenous sites; Displacement of [3H]clozapine binding ([8]; at 1 μM): completely displaced [^3H]clozapine binding to both DREADDs and endogenous clozapine-binding sites; Gi1 activation (BRET ratio) [1]: activate Gi1; Go1 activation (BRET ratio) [2]: activate Go1; Reduction of locomotor activity (distance traveled) [7]: more effective than clozapine at reducing locomotor activity; Brain metabolism change (DREAMM) ([4]; D1-hM3Dq mice, 0.1 mg/kg IP): decreased metabolism; Brain metabolism change (DREAMM) ([4]; D1-hM4Di mice, 0.1 mg/kg IP): increased metabolism; Brain metabolic changes (FDG-PET) ([4]; WT mice, 0.1 mg/kg IP): no significant brain metabolic changes; Inhibition of light-evoked neuronal activation [9]: rapid and potent hM4Di-driven inhibition; Binding to the tested DREADDs (in words) [5]: especially effective at binding the tested DREADDs; hM3Dq activation (fluorescence, calcium accumulation) [3]: effective at activating hM3Dq
